From patent publication US20260078103A1, “ISOQUINOLONES AS PI3K INHIBITORS” (OnKure, Inc., priority 2022, published 2026) come the findings set out here.

For orientation: EC50 means the concentration needed to bring the measured effect to its halfway point. The term IC50 denotes the concentration needed to halve the response being measured.

Format in all cases: cell-based
For experiment [1], the system named is T47D cells expressing mutant PI3Ka (H1047R). Description: In vitro cell proliferation, T47D cells (CellTiter-Glo). Conditions: inhibition of proliferation, read-out: Avg T-47D EC50. The protocol:
(§1) In Vitro Cell Proliferation: Determination of EC50 Values for Inhibition of Proliferation in T47D Cells Expressing Mutant PI3Ka (H1047R) Mutation and SKBR3 Cells Express WT PI3Ka.
(§2) T47D or SKBR3 cells were trypsinized, resuspended in culture media and seeded onto assay ready plates. T47D culture media consisted of RPMI, 10% FBS and Insulin (0.2 units/mL). SKBR3 culture media consisted of McCoys 5a and 10% FBS. Cells were seeded at a density of 1,500 cells/well and dispensed in 50 μl onto 384 well assay ready plates (Corning, 89089-790). Assay ready plates had previously been stamped with 10-point dilutions of compounds of interest, as well as controls. The Echo655 is used to stamp plates at 40 nL of compound or DMSO. Cells were grown for 72 hours at 37° Celsius and 5% CO2. After 72 hours, cells were equilibrated at room temperature for 15 minutes. 30 μL of CellTiter-Glo reagent is added to the plate, which is then shaken for 30 minutes at temperature at 300-500 rpm. Cells are then read on an Envision plate reader. The percentage of inhibition of proliferation was calculated using the following formula: % Inhibition=100×(LumD−Lumsample)/(LumD−Lumlnh), where D is obtained from cells treated with 0.1% DMSO only; lnh is obtained from cells treated with 10 uM Alpelisib. The effective concentration achieving 50% inhibition of proliferation (EC50) is calculated by fitting the Curve using Xlfit (v5.3.1.3), equation 201: Y=Bottom+(Top−Bottom)/(1+10^((LogEC50−X)*HillSlope)).

The subject of experiment [2] is SKBR3 cells express WT PI3Ka. In words: In vitro cell proliferation, SKBR3 cells (CellTiter-Glo). The conditions noted are these: inhibition of proliferation. The protocol:
as §1, §2
(In ATP-based viability assays light output follows the ATP content of the culture.)

Experiment [3] deals with phosphorylation of AKT (pAKT) in T47D cells expressing mutant PI3Ka (H1047R). Description: In vitro cell pAKT (Ser473) HTRF, T47D cells. How it is done:
(§3) In Vitro Cell pAKT: Determination of IC50 Values for Inhibition of Phosphorylation of AKT (pAKT) in T47D Cells Expressing Mutant PI3Ka (H1047R) Mutation and SKBR3 Cells Express WT PI3Ka.
(§4) T47D or SKBR3 cells were trypsinized, resuspended in culture media and seeded onto assay ready plates. T47D culture media consisted of RPMI, 10% FBS and Insulin (0.2 units/mL). SKBR3 culture media consisted of McCoy's 5a and 10% FBS. Cells were seeded at a density of 5000 cells/well and dispensed in 12.5 μL onto 384 well assay ready plates (Perkin Elmer, 6008238)). Assay ready plates had previously been stamped with 10-point dilutions of compounds of interest, as well as controls. The Echo655 is used to stamp plates at 12.5 nL of compound or DMSO. Cells were grown for 6 hours at 37° Celsius and 5% CO2. After 6 hours, 4 μL of Lysis buffer reagent was added to the plate, which was then centrifuged for 1 minute at 1000 rpm. Then the plate was incubated at room temperature for 30 minutes. After 30 minutes, 4 μL of antibody mix containing Eu Cryptate, d2 Cryptate, and detection buffer, was added to the plate. The plate was centrifuged for 1 minute at 1000 rpm and then incubated overnight at room temperature. The plate was read on an Envision plate reader using the HTRF protocol. The percentage of inhibition of AKT phosphorylation was calculated using the following formula: % Inhibition=100×(pAKTHC−pAKTSample)/(pAKTHC−pAKTLC)), where pAKTHC is obtained from cells treated with 0.1% DMSO only; PAKTLC is obtained from cells treated with 10 uM Alpelisib. The IC50 (concentration achieving 50% inhibition of pAKT) is calculated by fitting the Curve using XIfit (v5.3.1.3), equation 201: Y=Bottom+(Top−Bottom)/(1+10^((LogIC50−X)*HillSlope)).
(In general: TR-FRET usually uses a lanthanide donor and a delayed reading to cut background.)

In experiment [4] the test system is phosphorylation of AKT (pAKT) in SKBR3 cells express WT PI3Ka. Description: In vitro cell pAKT (Ser473) HTRF, SKBR3 cells. Conditions: cellular pAKT. How it is done: as §3, §4
Setting [5] is: cellular pAKT, T47D cells, mutant PI3Ka (H1047R), 6 hours; read-out: Avg T-47D IC50.

Read-outs that look alike come from different tables or passages of the source.

With `Cc1cc(C(C)Nc2ccccc2C(=O)O)c2cc(N3CCC(c4ccccc4)C3)n(C)c(=O)c2c1` (mixture of isomers) [Example 60], the EC50 in experiment [1] (72 hours) was 500 to 2000 nM; in experiment [2] (72 hours), greater than 15000 nM. The IC50 was 1 to 500 nM in experiment [3] (setting [5]) and greater than 15000 nM in experiment [4] (6 hours).

In the case of `Cc1cc(C(C)Nc2ccccc2C(=O)O)c2cc(N3CC4CN(CC(F)(F)F)CC4C3)n(C)c(=O)c2c1` (mixture of isomers) [Example 90], the figures for the EC50 in experiment [1] (72 hours) and in experiment [2] (72 hours) were 500 to 2000 nM and greater than 15000 nM, respectively. The figures for the IC50 in experiment [3] (setting [5]) and in experiment [4] (6 hours) were 500 to 2000 nM and greater than 15000 nM, respectively.

For `Cc1cc(C(C)Nc2ccccc2C(=O)O)c2cc(N3CCN(C(C)C(F)(F)F)CC3)n(C)c(=O)c2c1` (mixture of isomers) [Example 271], the EC50 in experiment [1] (72 hours) was 1 to 500 nM; in experiment [2] (72 hours) it was 2000 to 15000 nM. Also, the IC50 is 1 to 500 nM in experiment [3] (setting [5]) and greater than 15000 nM in experiment [4] (6 hours).

Consider `Cc1cc(C(C)Nc2ccccc2C(=O)O)c2cc(N3CCC(C)(C)CC3)n(C)c(=O)c2c1` (single isomer, unassigned) [Example 2, 2-((1-(3-(4,4-dimethylpiperidin-1-yl)-2,7-dimethyl-1-oxo-1,2-dihydroisoquinolin-5-yl)ethyl)amino)benzoic acid], for which the EC50 was 2000 to 15000 nM in experiment [1] (72 hours) and greater than 15000 nM in experiment [2] (72 hours). The IC50 in experiment [3] (read-out: Avg T-47D IC50; cellular pAKT, T47D cells, mutant PI3Ka (H1047R), 6 hours) was greater than 15000 nM; in experiment [4] (6 hours) it was greater than 15000 nM.

With `Cc1cc(C(C)Nc2ccc(Cl)nc2C(=O)O)c2cc(N3CCC(C)(C)CC3)n(C)c(=O)c2c1` (single isomer, unassigned) [Example 3, 6-chloro-3-((1-(3-(4,4-dimethylpiperidin-1-yl)-2,7-dimethyl-1-oxo-1,2-dihydroisoquinolin-5-yl)ethyl)amino)picolinic acid], the EC50 in experiment [1] (72 hours) was 1 to 500 nM; in experiment [2] (Homo sapiens, SK-BR-3, 72 h), 2000 to 15000 nM. The half-maximal inhibitory concentration (IC50) in experiment [3] (setting [5]) was in the range of 500 to 2000 nM; in experiment [4] (6 hours), 2000 to 15000 nM.

As for `Cc1cc(C(C)Nc2ccc(Cl)nc2C(=O)O)c2cc(N3CCC(C)(C)CC3)n(C)c(=O)c2c1` (single isomer, unassigned) [Example 4, 6-chloro-3-((1-(3-(4,4-dimethylpiperidin-1-yl)-2,7-dimethyl-1-oxo-1,2-dihydroisoquinolin-5-yl)ethyl)amino)picolinic acid], the EC50 in experiment [1] (72 hours) and in experiment [2] (72 hours) was 2000 to 15000 nM each time. The values for the IC50 in experiment [3] (setting [5]) and in experiment [4] (6 hours) were 2000 to 15000 nM and greater than 15000 nM, respectively.

Turning to `Cc1cc(C(C)Nc2ccccc2C(=O)O)c2cc(C3=CCC(C)(C)CC3)n(C)c(=O)c2c1` (single isomer, unassigned) [Example 5, 2-((1-(3-(4,4-dimethylcyclohex-1-en-1-yl)-2,7-dimethyl-1-oxo-1,2-dihydroisoquinolin-5-yl)ethyl)amino)benzoic acid], the EC50 in experiment [1] (72 hours) is 2000 to 15000 nM; in experiment [2] (72 hours), greater than 15000 nM. Further, the IC50 in experiment [3] (setting [5]) is 2000 to 15000 nM; in experiment [4] (6 hours), greater than 15000 nM.

`Cc1cc(C(C)Nc2ccccc2C(=O)O)c2cc(C3=CCC(C)(C)CC3)n(C)c(=O)c2c1` (single isomer, unassigned) [Example 6, 2-((1-(3-(4,4-dimethylcyclohex-1-en-1-yl)-2,7-dimethyl-1-oxo-1,2-dihydroisoquinolin-5-yl)ethyl)amino)benzoic acid]: the EC50 in experiment [1] (72 hours) was 1 to 500 nM; in experiment [2] (72 hours), 2000 to 15000 nM. For the same compound, the figures for the IC50 in experiment [3] (setting [5]) and in experiment [4] (6 hours) were 1 to 500 nM and 2000 to 15000 nM, respectively.

On to `Cc1cc(C(C)Nc2ccccc2C(=O)O)c2cc(N3CCN(CC(F)(F)F)CC3)n(C)c(=O)c2c1` (single isomer, unassigned) [Example 9, 2-((1-(2,7-dimethyl-1-oxo-3-(4-(2,2,2-trifluoroethyl)piperazin-1-yl)-1,2-dihydroisoquinolin-5-yl)ethyl)amino)benzoic acid], for which the results for the EC50 in experiment [1] (72 hours) and in experiment [2] (72 hours) were 2000 to 15000 nM and greater than 15000 nM, respectively. The IC50 in experiment [3] (setting [5]) is 2000 to 15000 nM; in experiment [4] (6 hours) it was greater than 15000 nM.

In the case of `Cc1cc(C(C)Nc2ccccc2C(=O)O)c2cc(N3CC4CCC(C4)C3)n(C)c(=O)c2c1` (single isomer, unassigned) [Example 10, 2-((1-(3-(3-azabicyclo[3.2.1]octan-3-yl)-2,7-dimethyl-1-oxo-1,2-dihydroisoquinolin-5-yl)ethyl)amino)benzoic acid], the EC50 in experiment [1] (72 hours) lay in the range of 2000 to 15000 nM; in experiment [2] (Homo sapiens, SK-BR-3, 72 h) it was 2000 to 15000 nM. The IC50 in experiment [3] (setting [5]) and in experiment [4] (6 hours) was greater than 15000 nM throughout.

Take `Cc1cc(C(C)Nc2ccccc2C(=O)O)c2cc(N3CC4CCC(C4)C3)n(C)c(=O)c2c1` (single isomer, unassigned) [Example 11, 2-((1-(3-(3-azabicyclo[3.2.1]octan-3-yl)-2,7-dimethyl-1-oxo-1,2-dihydroisoquinolin-5-yl)ethyl)amino)benzoic acid]: the EC50 in experiment [1] (72 hours) lay in the range of 1 to 500 nM; in experiment [2] (72 hours) it was 2000 to 15000 nM. The figures for the IC50 in experiment [3] (setting [5]) and in experiment [4] (6 hours) were 1 to 500 nM and 2000 to 15000 nM, respectively.

For the compound `Cc1cc(C(C)Nc2ccccc2C(=O)O)c2cc(N3CCN(C)CC3)n(C)c(=O)c2c1` (single isomer, unassigned) [Example 12, 2-((1-(2,7-dimethyl-3-(4-methylpiperazin-1-yl)-1-oxo-1,2-dihydroisoquinolin-5-yl)ethyl)amino)benzoic acid], the EC50 in experiment [1] (72 hours) was greater than 15000 nM; in experiment [2] (Homo sapiens, SK-BR-3, 72 h), greater than 15000 nM. Also, the concentration for half-maximal inhibition (IC50) in experiment [3] (setting [5]) is greater than 15000 nM; in experiment [4] (Homo sapiens, SK-BR-3, 6 h) it was greater than 15000 nM.

For `Cc1cc(C(C)Nc2ccccc2C(=O)O)c2cc(N3Cc4ccc(F)cc4C3)n(C)c(=O)c2c1` (single isomer, unassigned) [Example 50], the values for the EC50 in experiment [1] (72 hours) and in experiment [2] (72 hours) were 2000 to 15000 nM and greater than 15000 nM, respectively.

With `Cc1cc(C(C)Nc2ccccc2C(=O)O)c2cc(C3CCC(C)(C)CC3)n(C)c(=O)c2c1` (single isomer, unassigned) [Example 51], the EC50 was 2000 to 15000 nM in experiment [1] (72 hours) and greater than 15000 nM in experiment [2] (72 hours).

Take `Cc1cc(C(C)Nc2ccccc2C(=O)O)c2cc(C3CCC(C)(C)CC3)n(C)c(=O)c2c1` (single isomer, unassigned) [Example 52]: the figures for the EC50 in experiment [1] (72 hours) and in experiment [2] (72 hours) were 1 to 500 nM and 2000 to 15000 nM, respectively.

For `Cc1ccc(N[C@H](C)c2cc(F)cc3c(=O)n(C)c(C4CC4C4CC4)cc23)c(C(=O)O)n1` (stereo in doubt) [Example 46, -(((R)-1-(3-(trans-[1,1′-bi(cyclopropan)]-2-yl)-7-fluoro-2-methyl-1-oxo-1,2-dihydroisoquinolin-5-yl)ethyl)amino)-6-methylpicolinic acid], the EC50 in experiment [1] (72 hours) fell in the range of 500 to 2000 nM. Moreover, the IC50 in experiment [3] (setting [5]) was 1 to 500 nM; in experiment [4] (6 hours), greater than 15000 nM.

Turning to `Cc1cc(C(C)Nc2ccccc2C(=O)O)c2cc(N3C[C@@H]4[C@@H](C#N)[C@@H]4C3)n(C)c(=O)c2c1` (stereo partly drawn) [Example 16, 2-((1-(3-((1R,5S,6r)-6-cyano-3-azabicyclo[3.1.0]hexan-3-yl)-2,7-dimethyl-1-oxo-1,2-dihydroisoquinolin-5-yl)ethyl)amino)benzoic acid], the EC50 in experiment [1] (72 hours) lay within 2000 to 15000 nM. Besides, the IC50 in experiment [3] (setting [5]) is greater than 15000 nM.

Consider `Cc1cc(C(C)Nc2ccccc2C(=O)O)c2cc(N3CC(c4ccccc4)C3)n(C)c(=O)c2c1` (stereo not drawn) [Example 53], for which the EC50 is 2000 to 15000 nM in experiment [1] (Homo sapiens, T47D, 72 h) and greater than 15000 nM in experiment [2] (Homo sapiens, SK-BR-3, 72 h).

Regarding `CC(=O)N1CCN(c2cc3c(C(C)Nc4ccccc4C(=O)O)cc(C)cc3c(=O)n2C)CC1` (stereo not drawn) [Example 54], the EC50 in experiment [1] (Homo sapiens, T47D, 72 h) was 2000 to 15000 nM; in experiment [2] (Homo sapiens, SK-BR-3, 72 h), greater than 15000 nM.
